Assay results published in PubChem BioAssay AID256 (DTP/NCI, 2004).
Several values for one entry are separate records, joined by “and”; a condition that tells them apart may be missing. Equal values may be shown once. Toxic doses and inconclusive results are not listed. The calls were made as follows: active = survival T/C of 150% or more; inactive = T/C below 125% in these data.

Tested on: CD2F1 mice, L1210 leukemia ip, survival T/C
Test: NCI In Vivo Anticancer Drug Screen. Data for tumor model L1210 Leukemia (intraperitoneal) in CD2F1 (CDF1) mice
Conditions: higher = longer survival
In short: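 Implant tumor; dose compound or vehicle; measure endpoint in both groups; report treated divided by control.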

[1] = endpoint: mean survival time, dose: 75.0 mg/kg/injection, schedule: Q01DX001 (ip), vehicle: saline
[2] = endpoint: mean survival time, dose: 100.0 mg/kg/injection, schedule: Q01DX001 (ip), vehicle: saline
[3] = endpoint: mean survival time, dose: 50.0 mg/kg/injection, schedule: Q01DX009 (ip), vehicle: saline with Tween-80
[4] = endpoint: mean survival time, dose: 100.0 mg/kg/injection, schedule: Q01DX009 (ip), vehicle: saline with Tween-80
[5] = endpoint: mean survival time, dose: 200.0 mg/kg/injection, schedule: Q01DX009 (ip), vehicle: saline with Tween-80
[6] = endpoint: mean survival time, dose: 25.0 mg/kg/injection, schedule: Q01DX009 (ip), vehicle: saline with Tween-80
[7] = endpoint: mean survival time, dose: 400.0 mg/kg/injection, schedule: Q01DX009 (ip), vehicle: saline with Tween-80
[8] = endpoint: mean survival time, dose: 100.0 mg/kg/injection, schedule: Q04DX003 (ip), vehicle: saline with Tween-80
[9] = endpoint: mean survival time, dose: 200.0 mg/kg/injection, schedule: Q04DX003 (ip), vehicle: saline with Tween-80
[10] = endpoint: mean survival time, dose: 400.0 mg/kg/injection, schedule: Q04DX003 (ip), vehicle: saline with Tween-80
[11] = endpoint: mean survival time, dose: 25.0 mg/kg/injection, schedule: Q04DX003 (ip), vehicle: saline with Tween-80
[12] = endpoint: mean survival time, dose: 100.0 mg/kg/injection, schedule: Q04DX003 (ip), vehicle: saline
[13] = endpoint: mean survival time, dose: 3.12 mg/kg/injection, schedule: Q01DX009 (ip), vehicle: Klucel (hydroxypropylcellulose) (HPC)
[14] = endpoint: mean survival time, dose: 6.25 mg/kg/injection, schedule: Q01DX009 (ip), vehicle: Klucel (hydroxypropylcellulose) (HPC)
[15] = endpoint: mean survival time, dose: 12.5 mg/kg/injection, schedule: Q01DX009 (ip), vehicle: Klucel (hydroxypropylcellulose) (HPC)
[16] = endpoint: mean survival time, dose: 25.0 mg/kg/injection, schedule: Q01DX009 (ip), vehicle: Klucel (hydroxypropylcellulose) (HPC)
[17] = endpoint: mean survival time, dose: 25.0 mg/kg/injection, schedule: Q04DX002 (ip), vehicle: saline with Tween-80
[18] = endpoint: mean survival time, dose: 50.0 mg/kg/injection, schedule: Q04DX002 (ip), vehicle: saline with Tween-80
[19] = endpoint: mean survival time, dose: 100.0 mg/kg/injection, schedule: Q04DX002 (ip), vehicle: saline with Tween-80

Measured: T/C

CN(C)C(=Nc1ccccc1)N(C)N
inactive: [1] 97 % of control | endpoint: mean survival time, dose: 150.0 mg/kg/injection, schedule: Q01DX001 (ip), vehicle: saline 100 % of control

O=C(O)CSC1=NCCN1 (tested in a mixture with another compound)
inactive: [2] 90 % of control | endpoint: mean survival time, dose: 200.0 mg/kg/injection, schedule: Q01DX001 (ip), vehicle: saline 93 % of control | endpoint: mean survival time, dose: 400.0 mg/kg/injection, schedule: Q01DX001 (ip), vehicle: saline 93 % of control

CN(C)c1ccc(/C=C/c2ccnc3ccccc23)cc1
inactive: endpoint: mean survival time, dose: 12.5 mg/kg/injection, schedule: Q01DX Z (ip), vehicle: saline 103 % of control | endpoint: mean survival time, dose: 16.0 mg/kg/injection, schedule: Q01DX008 (iv), vehicle: saline 100 % of control | endpoint: mean survival time, dose: 25.0 mg/kg/injection, schedule: Q01DX Z (ip), vehicle: saline 103 % of control | endpoint: mean survival time, dose: 32.0 mg/kg/injection, schedule: Q01DX008 (iv), vehicle: saline 100 % of control | endpoint: mean survival time, dose: 50.0 mg/kg/injection, schedule: Q01DX Z (ip), vehicle: saline 103 % of control | endpoint: mean survival time, dose: 64.0 mg/kg/injection, schedule: Q01DX008 (iv), vehicle: saline 102 % of control

O=c1cc[nH]cc1[N+](=O)[O-]
inactive: [3] 101 % of control | [4] 101 % of control | endpoint: mean survival time, dose: 100.0 mg/kg/injection, schedule: Q04DX003 (ip), vehicle: saline sonified 97 % of control | [5] 100 % of control | endpoint: mean survival time, dose: 200.0 mg/kg/injection, schedule: Q04DX003 (ip), vehicle: saline sonified 95 % of control

CC1=C(Br)C(=O)C(Br)=C(Br)C1=O
inactive: [6] 96 % of control

CN(CCO)c1c(Cl)c(=O)oc2ccc(Cl)cc12
inactive: [4] 97 % of control | [5] 101 % of control | [7] 106 % of control

CCCCCCCC1SC(=S)NC1=O (stereo unspecified)
inactive: endpoint: mean survival time, dose: 12.5 mg/kg/injection, schedule: Q01DX009 (ip), vehicle: other 95 % of control | endpoint: mean survival time, dose: 25.0 mg/kg/injection, schedule: Q01DX009 (ip), vehicle: other 89 % of control | endpoint: mean survival time, dose: 50.0 mg/kg/injection, schedule: Q01DX009 (ip), vehicle: other 100 % of control | endpoint: mean survival time, dose: 100.0 mg/kg/injection, schedule: Q01DX009 (ip), vehicle: other 91 % of control

O=C1C(Br)C2CCC1C2C(=O)O (stereo unspecified)
inactive: [8] 101 % of control | [9] 98 % of control | [10] 98 % of control

O=S(=O)(O)c1ccc(/C2=c3\cc/c([n-]3)=C(\c3ccc(S(=O)(=O)O)cc3)c3ccc([n-]3)/C(c3ccc(S(=O)(=O)O)cc3)=c3/cc/c([n-]3)=C(\c3ccc(S(=O)(=O)O)cc3)c3ccc2[n-]3)cc1.[Co]
inactive: endpoint: mean survival time, dose: 50.0 mg/kg/injection, schedule: Q04DX002 (ip), vehicle: saline 104 % of control | endpoint: mean survival time, dose: 100.0 mg/kg/injection, schedule: Q04DX002 (ip), vehicle: saline 101 % of control | endpoint: mean survival time, dose: 200.0 mg/kg/injection, schedule: Q04DX002 (ip), vehicle: saline 101 % of control

CC1(O)CC2C=CC1CC2 (stereo unspecified)
inactive: [8] 101 % of control | [9] 104 % of control | [10] 95 % of control

CCN(CC)CCCC(C)Nc1ncnc2oc(C)c(C)c12 (stereo unspecified)
inactive: endpoint: mean survival time, dose: 6.25 mg/kg/injection, schedule: Q01DX009 (ip), vehicle: saline with Tween-80 93 % of control | endpoint: mean survival time, dose: 6.25 mg/kg/injection, schedule: Q04DX003 (ip), vehicle: saline with Tween-80 103 % of control | endpoint: mean survival time, dose: 12.5 mg/kg/injection, schedule: Q01DX009 (ip), vehicle: saline with Tween-80 95 % of control | endpoint: mean survival time, dose: 12.5 mg/kg/injection, schedule: Q04DX003 (ip), vehicle: saline with Tween-80 105 % of control | [6] 95 % of control | [11] 102 % of control

C[N+]12CCN(CC1)CC2.[Cl][Pt]([Cl])[Cl]
inactive: endpoint: mean survival time, dose: 12.5 mg/kg/injection, schedule: Q04DX003 (ip), vehicle: saline 101 % of control | endpoint: mean survival time, dose: 25.0 mg/kg/injection, schedule: Q04DX003 (ip), vehicle: saline 98 % of control | endpoint: mean survival time, dose: 50.0 mg/kg/injection, schedule: Q04DX003 (ip), vehicle: saline 106 % of control | [12] 113 % of control | endpoint: mean survival time, dose: 200.0 mg/kg/injection, schedule: Q04DX003 (ip), vehicle: saline 104 % of control

BrC1CC2CC1C1C=CCC21 (stereo unspecified)
inactive: [4] 100 % of control | [5] 101 % of control | [7] 101 % of control

Cc1ccc(-c2cc(Cl)c3cc(S(=O)(=O)F)ccc3n2)cc1
inactive: [4] 102 % of control | [8] 104 % of control | [5] 98 % of control | [9] 102 % of control | [7] 90 % of control | [10] 107 % of control

CCOP(=O)(OCC)ON1C(=O)c2cccc3cccc(c23)C1=O
inactive: [13] 100 % of control | [14] 95 % of control | [15] 95 % of control | [16] 93 % of control

O=c1[nH]c2ccccc2c2ccccc12
inactive: [4] 98 % of control | [5] 90 % of control | [7] 102 % of control

C=C1C(=O)OC2CCCCC3OC3C12 (stereo unspecified)
inactive: endpoint: mean survival time, dose: 25.0 mg/kg/injection, schedule: Q01DX001 (ip), vehicle: saline 108 % of control | endpoint: mean survival time, dose: 50.0 mg/kg/injection, schedule: Q01DX001 (ip), vehicle: saline 96 % of control | [2] 91 % of control

CC(=O)N(C(C)=O)c1ncc2ccccc2c1-c1ccc(N)cc1
inactive: [11] 92 % of control | endpoint: mean survival time, dose: 50.0 mg/kg/injection, schedule: Q04DX003 (ip), vehicle: saline with Tween-80 89 % of control | [8] 94 % of control

C=CS(C=C)=NS(=O)(=O)c1ccc(C)cc1
inactive: endpoint: mean survival time, dose: 1.56 mg/kg/injection, schedule: Q01DX009 (ip), vehicle: Klucel (hydroxypropylcellulose) (HPC) 97 % of control and 107 % of control | [13] 100 % of control and 105 % of control | [14] 95 % of control and 103 % of control | [15] 100 % of control and 107 % of control | [16] 97 % of control and 105 % of control

COc1ccc(/C=N/NC(=S)Nc2ccccn2)cc1OC
inactive: [17] 92 % of control | [18] 92 % of control | [19] 88 % of control and 95 % of control

NC(=O)c1c[n+](Cc2ccccc2)ccn1
inactive: [1] 104 % of control

CNC(=O)N(C)CC(O)C(O)C(O)C(O)CO (stereo unspecified)
inactive: [8] 97 % of control | [9] 104 % of control | [10] 106 % of control

Brc1c(NC2=NCCN2)ccc2nccnc12
inactive: endpoint: median survival time, dose: 1.56 mg/kg/injection, schedule: Q01DX009 (ip), vehicle: saline 102 % of control | endpoint: median survival time, dose: 3.12 mg/kg/injection, schedule: Q01DX009 (ip), vehicle: saline 96 % of control and 111 % of control | endpoint: median survival time, dose: 6.25 mg/kg/injection, schedule: Q01DX009 (ip), vehicle: saline 115 % of control and 119 % of control and 109 % of control | endpoint: median survival time, dose: 100.0 mg/kg/injection, schedule: Q01DX009 (ip), vehicle: saline 118 % of control

O=C(COc1c(Cl)cc(Cl)cc1Cl)Nc1ccc2c(c1)C(=O)c1ccccc1C2=O
inactive: [17] 98 % of control | [18] 98 % of control | [19] 94 % of control

CCN(CC)CCOC(=O)C(c1ccccc1)C(C)(O)CC (stereo unspecified)
inactive: endpoint: mean survival time, dose: 25.0 mg/kg/injection, schedule: Q01DX009 (ip), vehicle: saline 101 % of control | endpoint: mean survival time, dose: 50.0 mg/kg/injection, schedule: Q01DX009 (ip), vehicle: saline 87 % of control | endpoint: mean survival time, dose: 100.0 mg/kg/injection, schedule: Q01DX009 (ip), vehicle: saline 104 % of control | [12] 88 % of control

CN1CCC(c2ccccc2)(c2ccccc2)OC1c1ccccc1 (stereo unspecified)
inactive: [8] 101 % of control | [9] 100 % of control | [10] 94 % of control

N#CC1(Cc2ccc(OCc3ccccc3)c(OCc3ccccc3)c2)c2ccccc2C=CN1C(=O)c1ccccc1 (stereo unspecified)
inactive: [6] 103 % of control | [3] 100 % of control | [4] 91 % of control

O=C(Cc1cccc([N+](=O)[O-])c1)Nc1cccc(S(=O)(=O)F)c1
inactive: endpoint: mean survival time, dose: 100.0 mg/kg/injection, schedule: Q01DX001 (ip), vehicle: saline with Tween-80 96 % of control | endpoint: mean survival time, dose: 200.0 mg/kg/injection, schedule: Q01DX001 (ip), vehicle: saline with Tween-80 95 % of control | endpoint: mean survival time, dose: 400.0 mg/kg/injection, schedule: Q01DX001 (ip), vehicle: saline with Tween-80 96 % of control

COc1ccccc1CC(C)N (stereo unspecified)
inactive: endpoint: mean survival time, dose: 20.0 mg/kg/injection, schedule: Q04DX003 (ip), vehicle: Klucel (hydroxypropylcellulose) (HPC) 90 % of control | endpoint: mean survival time, dose: 40.0 mg/kg/injection, schedule: Q04DX003 (ip), vehicle: Klucel (hydroxypropylcellulose) (HPC) 91 % of control | endpoint: mean survival time, dose: 80.0 mg/kg/injection, schedule: Q04DX003 (ip), vehicle: Klucel (hydroxypropylcellulose) (HPC) 96 % of control
